Key:
Artemia salina = experiment: Brine shrimp lethality; format: in vivo; settings: for % mortality / dead / live: 10 nauplii, 24 hrs
blaCTX-M15 = blaCTX-M15 (Escherichia coli O25b:H4, UniProt A0A5R8T042); experiment: Beta-lactamase inhibition assay; format: biochemical, Salmonella typhi; settings: for BL inhibitory activity: nitrocefin, 490 nm
blaCTX-M15, sequence (A0A5R8T042 29-291): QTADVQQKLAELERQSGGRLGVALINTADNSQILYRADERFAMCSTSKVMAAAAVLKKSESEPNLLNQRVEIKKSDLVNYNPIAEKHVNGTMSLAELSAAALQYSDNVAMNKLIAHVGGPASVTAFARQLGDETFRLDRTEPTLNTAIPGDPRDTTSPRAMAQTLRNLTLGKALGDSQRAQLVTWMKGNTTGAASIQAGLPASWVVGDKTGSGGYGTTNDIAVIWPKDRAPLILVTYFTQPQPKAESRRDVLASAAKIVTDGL

In the case of `COc1cccc2c1C(=O)c1c(O)c3c(c(O)c1C2=O)C[C@@](O)(C(=O)CO)C[C@@H]3O[C@H]1C[C@H](N)[C@H](O)[C@H](C)O1` [Doxorubicin], the “% mortality” value (Artemia salina; 25 μg/ml) is reported as 10%, the dead (Artemia salina; 25 μg/ml) is reported as 1 and the live (Artemia salina; 25 μg/ml) is reported as 9. For the same molecule, the “% mortality” value (Artemia salina; 50 μg/ml) was 20%, the dead (Artemia salina; 50 μg/ml) was 2 and the live (Artemia salina; 50 μg/ml) was 8. The “% mortality” value (Artemia salina; 75 μg/ml) was 20%, the dead (Artemia salina; 75 μg/ml) was 2 and the live (Artemia salina; 75 μg/ml) was 8. For the same molecule, the “% mortality” value (Artemia salina; 100 μg/ml) was 30%, the dead (Artemia salina; 100 μg/ml) was 3 and the live (Artemia salina; 100 μg/ml) was 7. For the same molecule, the LD50 (Artemia salina; brine shrimp, tested 25-100 μg/ml) was 187 µg/mL.
`O=C(O)[C@H]1/C(=C/CO)O[C@@H]2CC(=O)N21` [abcam Clavulanic acid, Clavulanic acid] was tested, and the Ki (blaCTX-M15) was 38.9 µM, the BL inhibitory activity (blaCTX-M15; concentration 0.03 ug/ml) was 0.9345 and the BL inhibitory activity (blaCTX-M15; concentration 0.09 ug/ml) was 0.8498. It also gave a BL inhibitory activity (blaCTX-M15; concentration 1 ug/ml) of 0.753, a BL inhibitory activity (blaCTX-M15; concentration 5 ug/ml) of 0.623 and a BL inhibitory activity (blaCTX-M15; concentration 10 ug/ml) of 0.53. For the same molecule, the BL inhibitory activity (blaCTX-M15; concentration 50 ug/ml) was 0.239, the BL inhibitory activity (blaCTX-M15; concentration 100 ug/ml) was 0.09 and the BL inhibitory activity (blaCTX-M15; concentration 150 ug/ml) was 0.02. It also gave a BL inhibitory activity (blaCTX-M15; concentration 200 ug/ml) of 0.015.
